Source: the NIST ThermoML archive (doi:10.1016/j.tca.2013.12.016)

Test: mn = molality of the nth substance listed, in mol/kg
Details: 101 kPa, Liquid; for speed of sound: Linear variable-path acoustic interferometer; for mass density: Vibrating tube method

CCOC(C)=O [ethyl acetate] + CCO
Details	mass density, 298.15 K [kg/m3]	mass density, 303.15 K [kg/m3]	mass density, 308.15 K [kg/m3]	mass density, 313.15 K [kg/m3]	speed of sound, 298.15 K [m/s]	speed of sound, 303.15 K [m/s]	speed of sound, 308.15 K [m/s]	speed of sound, 313.15 K [m/s]
m2 = 0.0124	894.9	888.4	882.9	877.2	1152	1135	1116	1093
m2 = 0.0357	894.7	888.2	882.7	877	1151	1134	1115	1091
m2 = 0.0713	894.4	887.9	882.4	876.4	1150	1133	1114	1090
m2 = 0.1025	894.2	887.7	882.2	876.5	1149	1130	1110	1089
m2 = 0.2087	893.5	887	881.5	875.8	1147	1128	1098	1077
m2 = 0.3504	892.6	886.1	880.6	874.9	1143	1123	1092	1069
m2 = 0.5065	891.7	885.3	879.8	874	1140	1119	1091	1067
m2 = 0.6771	890.7	884.4	878.9	873.2	1139	1116	1086	1062
m2 = 0.9772	889.1	883	877.4	871.8	1136	1113	1083	1059
m2 = 1.701	885.5	879.4	874	868.3	1131	1110	1080	1056
m2 = 2.712	880.6	874.7	869.3	863.7	1128	1107	1074	1053
m2 = 3.001	879.4	873.5	868.1	862.5	1122	1101	1068	1044

COC(C)=O [methyl ethanoate] + CCO
Details	mass density, 298.15 K [kg/m3]	mass density, 303.15 K [kg/m3]	mass density, 308.15 K [kg/m3]	mass density, 313.15 K [kg/m3]	speed of sound, 298.15 K [m/s]	speed of sound, 303.15 K [m/s]	speed of sound, 308.15 K [m/s]	speed of sound, 313.15 K [m/s]
m2 = 0.0152	927	920.5	914.2	908	1153	1134	1113	1089
m2 = 0.0357	926.8	920.3	914	907.8	1152	1131	1110	1086
m2 = 0.065	926.6	920.1	913.8	907.6	1150	1130	1108	1084
m2 = 0.102	926.3	919.8	913.5	907.3	1149	1128	1107	1083
m2 = 0.2098	925.5	919	912.7	906.5	1146	1125	1104	1080
m2 = 0.3417	924.5	918	911.7	905.5	1143	1122	1101	1077
m2 = 0.5068	923.1	916.7	910.4	904.1	1140	1119	1098	1074
m2 = 0.6769	921.8	915.4	909.1	902.8	1137	1116	1095	1071
m2 = 0.9775	919.5	913.1	906.9	900.6	1134	1113	1092	1068
m2 = 1.702	914.4	908	901.9	895.5	1131	1110	1089	1065
m2 = 2.712	907.8	901.5	895.4	889	1128	1107	1086	1062
m2 = 3	905.8	899.7	893.5	887.1	1122	1104	1080	1056
